“And” between values parts separate entries of the source, which are not always exact repeats. Equal entries are not always repeated. Structures can show the parent of a compound that is named as a salt.
System: male CD1 mice
Assay: Anti-depressant activity: forced swimming test in mice
Type: in vivo
Conditions: 30 mg/kg ip
Source text: A depressed state can be induced in mice by forcing them to swim in a narrow cylinder from which they cannot escape. After an initial period of vigorous activity, the mice adopt a characteristic immobile posture which is readily identifiable.
Fifty-five male CD1 mice weighing 20-25 g at the start of the study were obtained from Charles River Laboratories Espafia (Barcelona, Spain). These mice underwent a prior acclimatization period of 6 days before the start of the experimental work, during which they underwent a veterinary examination in order to assure their good health.
The mice were allotted at random to five groups, each consisting of ten animals. The rest of the animals (one per group) were kept as reserve (these animals are not taken into account in the final results). The experimental design is described in the Table 7 below.
The mice began a fasting period of approximately 6 hours before starting the treatments. At the beginning of the test, the corresponding treatments were administrated by the assigned route at a volume of 10 mL/kg. The test item was administrated at three dose levels of 100, 200 and 300 mg/kg by oral route (gastric gavage or po). The reference item was administrated at the dose level of 30 mg/kg by intraperitoneal route or ip. The Control group only received the vehicle (water for injection) orally (po) by gastric gavage.
Six minutes after the administration of the treatments, each mouse was dropped into the cylinder containing water (forcing it to swim) and left there for 6 minutes, the testing time. The time of immobility of the animal was recorded. A mouse was considered immobile when it ceased struggling and remained floating motionless in the water making only those movements necessary to keep its head above water. […] Finally, once the test was over, the animals were sacrificed by cervical dislocation.

## CN(C)CCCN1c2ccccc2CCc2ccccc21 [Imipramine HCl, Imipramine hydrochloride]
  % decrease versus Control (time of immobility): 56.2%
Animal no. 1-10, hydrochloride
  Time of immobility (s) individual values: 90 s and 140 s and 64 s and 51 s and 3 s and 91 s and 37 s
Last 4 min of 6 min test, Mean ± SEM, n = 10, hydrochloride
  Time of immobility (s), mean: 80.8 ± 13.14 s and 80.8 s
